How the values were obtained:
HDL-C levels = settings: clinical, cited from earlier work
LDL-C levels = settings: clinical, cited from earlier work
CETP = molecular target: T1, CETP (Homo sapiens, UniProt P11597); assay: CETP inhibitory activity, BODIPY-CE fluorescence assay (CETP RP Activity Assay Kit); assay type: biochemical; settings: for IC50: read-out: IC50 (CETP inhibition); for CETP inhibition (in words): BODIPY-CE fluorescence assay
T1 construct: purchased Roar, New York, NY, USA RB-RPAK
T1 sequence (P11597 18-493): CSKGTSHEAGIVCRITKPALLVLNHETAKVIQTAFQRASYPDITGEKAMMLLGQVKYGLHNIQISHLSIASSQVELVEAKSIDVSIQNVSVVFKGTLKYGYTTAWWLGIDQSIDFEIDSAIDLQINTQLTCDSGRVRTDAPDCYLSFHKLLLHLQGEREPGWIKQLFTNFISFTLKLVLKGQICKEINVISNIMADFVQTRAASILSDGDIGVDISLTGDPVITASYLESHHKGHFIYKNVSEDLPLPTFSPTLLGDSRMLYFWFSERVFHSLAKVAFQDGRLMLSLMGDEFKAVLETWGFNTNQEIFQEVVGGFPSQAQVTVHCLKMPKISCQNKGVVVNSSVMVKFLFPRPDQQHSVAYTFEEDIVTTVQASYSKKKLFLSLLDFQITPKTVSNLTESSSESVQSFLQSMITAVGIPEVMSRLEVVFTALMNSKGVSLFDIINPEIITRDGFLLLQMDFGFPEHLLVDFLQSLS
Procedure: All tested compounds were dissolved in 100% DMSO, making sure the compound was dissolved totally. The solution was vibrated hard on an oscillator for more than 30 s and then stored in a nitrogen cabinet. The stock solutions (10 mM) were diluted with DMSO for an 8-point titration (1:5 serial dilutions) in a 96-well dilution plate. […] Compounds were tested at eight concentrations, and the fluorescence intensity were measured using a fluorometer (ExEm = 465/535 nm). The IC50 was determined from a curve fit of the data with each concentration tested three times.

[1] = Metabolic stability in human liver microsomes; assay type: in vitro ADME; settings: 37 °C, NADPH, 0-60 min, read-out: HLM Stability (human liver microsomal intrinsic clearance)
Procedure: (§1) Ten μL (100 μM/L) of compound and 80 μL liver microsomes were mixture and incubated at 37 °C for 10 min, and then 10 μL NADPH regenerating system was added. Samples were obtained at 0 min, 5 min, 10 min, 20 min, 30 min and 60 min respectively, and 300 μL stop solution (cold in 4 °C, including 100 ng/mL tolbutamide and 100 ng/mL labetalol) was added to terminate the reaction. After oscillating for 10 min, the plates were centrifuged (4000 rpm) at room temperature for 20 min, and the supernatants were used for analyzation.

[2] = Metabolic stability in rat liver microsomes; assay type: in vitro ADME; settings: 37 °C, NADPH, 0-60 min, read-out: RLM Stability (rat liver microsomal intrinsic clearance)
Procedure: as §1

CYP3A4 = molecular target: T2, CYP3A4 (Homo sapiens, UniProt P08684); assay: Cytochrome P450 inhibition assay, CYP3A4; assay type: in vitro ADME; settings: human liver microsomes, pH 7.4, probe midazolam (2 μM), 10 μM compound, human liver microsomes 0.25 mg/mL, substrate midazolam, read-out: CYPs Direct Inhibition Mean (10 μM) 3A4
T2 construct: from tissue; host or cells: human liver microsomes
Procedure: (§2) Five specific probe substrates (CYP3A4, 2 μM midazolam; CYP2D6, 5 μM dextromethorphan; CYP2C9, 5 μM diclofenac; CYP1A2, 10 μM phenacetin; CYP2C19, 30 μM S-mephenytoin) were used to evaluated cytochrome P450 inhibition in human liver microsomes (0.25 mg/mL). A mixture of 20 μL specific probe substrate solution and 20 μL buffer solution (100 mM K3PO4, 33 mM MgCl2, pH = 7.4) was added compound (2 μL) and 158 μL human liver microsomes solution (0.25 mg/mL). The mixture were incubated at 37 °C for 10 min and another 10 min underwent after 20 μL NADPH solution added. Consecutively, 400 µL cold stop solution (200 ng/mL tolbutamide and 200 ng/mL labetalol in acetonitrile) was added to terminated the reaction. After the reactions were terminated, The plates were centrifuged (4000 rpm) at room temperature for 20 min, and the supernatants were analysed by LC/MS/MS.

CYP2D6 = molecular target: T3, CYP2D6 (Homo sapiens, UniProt P10635); assay: Cytochrome P450 inhibition assay, CYP2D6; assay type: in vitro ADME; settings: 10 μM compound, human liver microsomes 0.25 mg/mL, substrate dextromethorphan
T3 construct: from tissue; host or cells: human liver microsomes
Procedure: as §2

CYP2C9 = molecular target: T4, CYP2C9 (Homo sapiens, UniProt P11712); assay: Cytochrome P450 inhibition assay, CYP2C9; assay type: in vitro ADME; settings: human liver microsomes, pH 7.4, probe diclofenac (5 μM), 10 μM compound, human liver microsomes 0.25 mg/mL, substrate diclofenac, read-out: CYPs Direct Inhibition Mean (10 μM) 2C9
T4 construct: from tissue; host or cells: human liver microsomes
Procedure: as §2

CYP1A2 = molecular target: T5, CYP1A2 (Homo sapiens, UniProt P05177); assay: Cytochrome P450 inhibition assay, CYP1A2; assay type: in vitro ADME; settings: 10 μM compound, human liver microsomes 0.25 mg/mL, substrate phenacetin
T5 construct: from tissue; host or cells: human liver microsomes
T5 sequence (P05177 1-516): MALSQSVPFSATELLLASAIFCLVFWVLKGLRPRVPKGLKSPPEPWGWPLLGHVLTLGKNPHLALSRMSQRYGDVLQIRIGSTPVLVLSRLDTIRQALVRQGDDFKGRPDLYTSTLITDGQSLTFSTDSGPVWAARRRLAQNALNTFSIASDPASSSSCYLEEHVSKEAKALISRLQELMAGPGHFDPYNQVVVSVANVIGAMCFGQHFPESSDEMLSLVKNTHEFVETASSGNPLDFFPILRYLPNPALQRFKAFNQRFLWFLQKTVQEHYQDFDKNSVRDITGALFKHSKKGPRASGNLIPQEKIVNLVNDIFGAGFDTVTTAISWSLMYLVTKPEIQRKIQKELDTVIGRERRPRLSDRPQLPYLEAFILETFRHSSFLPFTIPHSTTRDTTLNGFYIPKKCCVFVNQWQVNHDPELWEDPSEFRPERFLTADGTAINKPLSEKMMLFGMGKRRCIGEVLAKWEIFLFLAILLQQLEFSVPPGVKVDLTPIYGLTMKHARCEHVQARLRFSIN
Procedure: as §2

T3 sequence (P10635 whole entry): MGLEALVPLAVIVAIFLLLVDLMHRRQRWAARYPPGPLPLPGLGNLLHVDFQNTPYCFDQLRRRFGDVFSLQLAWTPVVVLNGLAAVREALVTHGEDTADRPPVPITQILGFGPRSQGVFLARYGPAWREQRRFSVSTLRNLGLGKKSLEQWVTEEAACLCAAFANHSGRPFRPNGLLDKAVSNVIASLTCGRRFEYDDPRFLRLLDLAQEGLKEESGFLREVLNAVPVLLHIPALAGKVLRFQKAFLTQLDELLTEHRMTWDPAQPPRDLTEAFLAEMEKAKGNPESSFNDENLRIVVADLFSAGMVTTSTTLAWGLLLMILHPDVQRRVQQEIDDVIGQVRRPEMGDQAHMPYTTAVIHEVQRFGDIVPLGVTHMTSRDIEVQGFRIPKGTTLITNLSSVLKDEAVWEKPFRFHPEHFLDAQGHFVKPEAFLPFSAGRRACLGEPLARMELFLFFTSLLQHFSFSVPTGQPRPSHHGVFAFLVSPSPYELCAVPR
T4 sequence (P11712 whole entry): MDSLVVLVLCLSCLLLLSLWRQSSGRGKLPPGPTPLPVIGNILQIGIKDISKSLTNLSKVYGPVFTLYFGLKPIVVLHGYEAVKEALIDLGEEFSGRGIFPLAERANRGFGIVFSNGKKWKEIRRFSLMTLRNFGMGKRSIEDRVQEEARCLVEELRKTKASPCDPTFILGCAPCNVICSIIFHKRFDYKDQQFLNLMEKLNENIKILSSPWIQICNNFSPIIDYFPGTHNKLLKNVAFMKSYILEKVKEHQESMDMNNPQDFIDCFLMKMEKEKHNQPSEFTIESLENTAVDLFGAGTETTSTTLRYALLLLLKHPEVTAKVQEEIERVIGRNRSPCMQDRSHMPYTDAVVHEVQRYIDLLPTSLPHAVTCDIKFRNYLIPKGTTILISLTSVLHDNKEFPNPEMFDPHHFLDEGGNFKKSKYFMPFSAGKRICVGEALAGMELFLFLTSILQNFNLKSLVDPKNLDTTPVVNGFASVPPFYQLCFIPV
T2 sequence (P08684 whole entry): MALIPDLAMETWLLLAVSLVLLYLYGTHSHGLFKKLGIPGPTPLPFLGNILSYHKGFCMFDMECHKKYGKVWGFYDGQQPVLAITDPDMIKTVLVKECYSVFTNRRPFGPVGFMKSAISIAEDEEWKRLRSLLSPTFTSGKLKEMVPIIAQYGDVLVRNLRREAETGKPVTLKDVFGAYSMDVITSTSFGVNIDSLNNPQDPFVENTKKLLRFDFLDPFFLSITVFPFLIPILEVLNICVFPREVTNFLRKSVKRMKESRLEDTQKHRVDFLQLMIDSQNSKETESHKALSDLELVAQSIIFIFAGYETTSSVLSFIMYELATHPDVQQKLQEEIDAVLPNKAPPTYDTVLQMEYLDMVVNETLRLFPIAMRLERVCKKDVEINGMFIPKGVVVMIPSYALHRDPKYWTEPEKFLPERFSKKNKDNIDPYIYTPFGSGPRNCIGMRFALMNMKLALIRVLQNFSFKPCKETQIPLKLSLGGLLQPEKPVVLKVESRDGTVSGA

COc1cc(F)c(C(C)C)cc1-c1ccc(C(F)(F)F)cc1CN1C(=O)O[C@H](c2cc(C(F)(F)F)cc(C(F)(F)F)c2)[C@@H]1C [Anacetrapib]
raise of HDL-C levels (HDL-C levels; printed as 'to'): 130% | decrease of LDL-C levels (LDL-C levels; printed as 'to'): 40%

COc1ccc(C(C)C)cc1C1=C(CN(Cc2cc(C(F)(F)F)cc(C(F)(F)F)c2)c2nnn(CC(=O)O)n2)CC(C)(C)CC1 [Compound 17, N-(3,5-Bis(trifluoromethyl)benzyl)-N-((2-(5-isopropyl-2-methoxyphenyl)-5,5-dimethylcyclohex-1-enyl)-methyl)-2H-tetrazol-5-amine-2-acetic acid]
activity weaker than the reference compound (fold) (CETP; IC50 versus reference compound anacetrapib): 10 fold | IC50 (CETP): 0.38 ± 0.08 µM | microsomal CLint at 10 μM [1]: 119 µL/min/mg | microsomal CLint at 10 μM [2]: 146 µL/min/mg | inhibition at 10 min, 10 µM (CYP3A4): < 20% | CYPs Direct Inhibition Mean (10 μM) 2D6 (CYP2D6): No inhibition | inhibition at 10 min, 10 µM (CYP2D6; pH 7.4, probe dextromethorphan (5 μM), read-out: CYPs Direct Inhibition Mean (10 μM) 2D6): < 20% | inhibition at 10 min, 10 µM (CYP2C9): < 20% | CYPs Direct Inhibition Mean (10 μM) 1A2 (CYP1A2): No inhibition | inhibition at 10 min, 10 µM (CYP1A2; pH 7.4, probe phenacetin (10 μM), read-out: CYPs Direct Inhibition Mean (10 μM) 1A2): < 20%

COc1ccc(C(C)C)cc1C1=C(CN(Cc2cc(C(F)(F)F)cc(C(F)(F)F)c2)C2CCN(CC(=O)O)CC2)CC(C)(C)CC1 [Compound 33, N-(3,5-Bis(trifluoromethyl)benzyl)-N-((2-(5-isopropyl-2-methoxyphenyl)-5,5-dimethylcyclohex-1-enyl)-methyl)piperidin-4-amine-1-acetic acid]
IC50 (CETP): > 50 µM

COc1ccc(C(C)C)cc1C1=C(CN(Cc2cc(C(F)(F)F)cc(C(F)(F)F)c2)C2CCN(C(=O)OC3CCOCC3)CC2)CC(C)(C)CC1 [Compound 34, N-(3,5-Bis(trifluoromethyl)benzyl)-N-((2-(5-isopropyl-2-methoxyphenyl)-5,5-dimethylcyclohex-1-enyl)-methyl)piperidin-4-amine-1-methanoic acid tetrahydro-2H-pyran-4-ol ester]
IC50 (CETP): > 50 µM

CCOC(=O)N1CC(N(CC2=C(c3cc(C(C)C)ccc3OC)CCC(C)(C)C2)Cc2cc(C(F)(F)F)cc(C(F)(F)F)c2)C1 [Compound 35, N-(3,5-Bis(trifluoromethyl)benzyl)-N-((5′-isopropyl-2′-methoxy-4,4-dimethyl-3,4,5,6-tetrahydro-[1,1′-biphenyl]-2-yl)methyl)azetidin-3-amine-1-methanoic acid ethyl ester]
IC50 (CETP): > 50 µM

COc1ccc(C(C)C)cc1C1=C(CN(Cc2cc(C(F)(F)F)cc(C(F)(F)F)c2)C2CN(C(=O)OC(C)C)C2)CC(C)(C)CC1 [Compound 36, N-(3,5-Bis(trifluoromethyl)benzyl)-N-((5′-isopropyl-2′-methoxy-4,4-dimethyl-3,4,5,6-tetrahydro-[1,1′-biphenyl]-2-yl)methyl)azetidin-3-amine-1-methanoic acid isopropyl ester]
IC50 (CETP): > 50 µM

COc1ccc(C(C)C)cc1C1=C(CN(Cc2cc(C(F)(F)F)cc(C(F)(F)F)c2)C2CN(C(=O)OC3CCOCC3)C2)CC(C)(C)CC1 [Compound 37, N-(3,5-Bis(trifluoromethyl)benzyl)-N-((5′-isopropyl-2′-methoxy-4,4-dimethyl-3,4,5,6-tetrahydro-[1,1′-biphenyl]-2-yl)methyl)azetidin-3-amine-1-methanoic acid tetrahydro-2H-pyran-4-ol ester]
IC50 (CETP): > 50 µM

COc1ccc(C(C)C)cc1C1=C(CN(Cc2cc(C(F)(F)F)cc(C(F)(F)F)c2)c2nnn(C)n2)CC(C)(C)CC1 [Compound 40, N-(3,5-Bis(trifluoromethyl)benzyl)-N-((2-(5-isopropyl-2-methoxyphenyl)-5,5-dimethylcyclohex-1-enyl)-methyl)-2-methyl-2H-tetrazol-5-amine]
IC50 (CETP): 0.81 ± 0.03 µM

COc1ccc(C(C)C)cc1C1=C(CN(Cc2cccc(C(F)(F)F)c2)c2nnn(C)n2)CC(C)(C)CC1 [Compound 41, N-((2-(5-Isopropyl-2-methoxyphenyl)-5,5-dimethylcyclohex-1-enyl)methyl)-2-methyl-N-(3-(trifluoromethyl)-benzyl)-2H-tetrazol-5-amine]
IC50 (CETP): 10.05 ± 0.06 µM

COc1ccc(C(C)C)cc1C1=C(CN(Cc2ccc(F)cc2)c2nnn(C)n2)CC(C)(C)CC1 [Compound 42, N-(4-Fluorobenzyl)-N-((2-(5-isopropyl-2-methoxyphenyl)-5,5-dimethylcyclohex-1-enyl)methyl)-2-methyl-2H-tetrazol-5-amine]
CETP inhibition (in words) (CETP): no CETP inhibition | IC50 (CETP): > 50 µM

COc1ccc(C(C)C)cc1C1=C(CN(Cc2ccc(C(F)(F)F)cc2)c2nnn(C)n2)CC(C)(C)CC1 [Compound 43, N-((2-(5-Isopropyl-2-methoxyphenyl)-5,5-dimethylcyclohex-1-enyl)methyl)-2-methyl-N-(4-(trifluoromethyl)-benzyl)-2H-tetrazol-5-amine]
CETP inhibition (in words) (CETP): no CETP inhibition | IC50 (CETP): > 50 µM

COc1ccc(C(C)C)cc1C1=C(CN(Cc2ccc(OC(F)(F)F)cc2)c2nnn(C)n2)CC(C)(C)CC1 [Compound 44, N-((2-(5-Isopropyl-2-methoxyphenyl)-5,5-dimethylcyclohex-1-enyl)methyl)-2-methyl-N-(4-(trifluoro-methoxy)benzyl)-2H-tetrazol-5-amine]
CETP inhibition (in words) (CETP): no CETP inhibition | IC50 (CETP): > 50 µM

CCC(CC)CC1(C(=O)Nc2ccccc2SC(=O)C(C)C)CCCCC1 [Dalcetrapib]
elevation of HDL-C levels (HDL-C levels): up to 30% | effect on LDL-C levels (LDL-C levels): minimal effect

Cc1cc(C)c2c(c1)[C@@H](N(Cc1cc(C(F)(F)F)cc(C(F)(F)F)c1)c1nnn(C)n1)CCCN2C[C@H]1CC[C@H](C(=O)O)CC1 [Evacetrapib]
raising of HDL-C levels (HDL-C levels): more than 129% | decrease of LDL-C (LDL-C levels): up to 36%

From paper PMC6151529, “Design, Synthesis and Biological Evaluation of N,N-Substituted Amine Derivatives as Cholesteryl Ester Transfer Protein Inhibitors” (Molecules : A Journal of Synthetic Chemistry and Natural …, 2017)
